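Values below derive from 48-hour exposures of cells grown in 96-well plates, with endpoints linearly interpolated between the two concentrations bracketing the appropriate inhibition level. Abbreviation: GI50, concentration required for 50% inhibition of growth.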 Active and inactive are the calls of the source. Cut-off read from the data, not from the text of the source: active = GI50 up to about 1.1 µM and inactive = higher.
What was measured:
Experiment in all cases: inhibition of tumour cell growth, NCI panel, 48 h
[1] = tested on: ACHN
[2] = tested on: TK-10
[3] = tested on: MDA-MB-231
[4] = tested on: T47D
[5] = tested on: MCF7
[6] = tested on: IGROV-1
[7] = tested on: NCI-H460
[8] = tested on: HT-29
[9] = tested on: SW-620
[10] = tested on: SK-MEL-5
[11] = tested on: SK-MEL-28
[12] = tested on: HCC 2998
[13] = tested on: MOLT-4
[14] = tested on: MDA-N
[15] = tested on: NCI/ADR-RES
[16] = tested on: DU-145
[17] = tested on: HL-60
[18] = tested on: Malme-3M
[19] = tested on: NCI-H226

| SMILES | GI50 [1] | GI50 [2] | GI50 [3] | GI50 [4] | GI50 [5] | GI50 [6] | GI50 [7] | GI50 [8] | GI50 [9] | GI50 [10] | GI50 [11] | GI50 [12] | GI50 [13] | GI50 [14] | GI50 [15] | GI50 [16] | GI50 [17] | GI50 [18] | GI50 [19] |
| --- | --- | --- | --- | --- | --- | --- | --- | --- | --- | --- | --- | --- | --- | --- | --- | --- | --- | --- | --- |
| NS(=O)(=O)c1ccc(NCc2cnc3ccccc3c2)cc1 | > 100 µM (inactive) | > 100 µM (inactive) | > 100 µM (inactive) | > 100 µM (inactive) | > 100 µM (inactive) | 49.4 µM (inactive) | > 100 µM (inactive) | > 100 µM (inactive) | > 100 µM (inactive) | > 100 µM (inactive) | > 100 µM (inactive) | > 100 µM (inactive) | > 100 µM (inactive) | > 100 µM (inactive) | 83.8 µM (inactive) | > 100 µM (inactive) | 0.412 µM (active) | > 100 µM (inactive) | > 100 µM (inactive) |
| Nc1ncnc2nn(C3OC(CO)C(O)C3O)nc12 (stereo not drawn) | 3.67 µM (inactive) | 3.56 µM (inactive) | 3.75 µM (inactive) | 4.21 µM (inactive) | 8.28 µM (inactive) | 4.12 µM (inactive) | 4.09 µM (inactive) | 8.81 µM (inactive) | 6.52 µM (inactive) | 12.8 µM (inactive) | 36.6 µM (inactive) | 7.6 µM (inactive) | 15.1 µM (inactive) | 10.3 µM (inactive) | 9.73 µM (inactive) | 5.26 µM (inactive) | 2.43 µM (inactive) | 20.5 µM (inactive) | 5.36 µM (inactive) |
| COc1ccc2c(c1O)[C@@]13CCCC=C1[C@@H](C2)[N+](C)(C)CC3 | > 100 µM (inactive) | > 100 µM (inactive) | > 100 µM (inactive) | > 100 µM (inactive) | > 100 µM (inactive) | > 100 µM (inactive) | > 100 µM (inactive) | > 100 µM (inactive) | > 100 µM (inactive) | 91.4 µM (inactive) | > 100 µM (inactive) | > 100 µM (inactive) | – | > 100 µM (inactive) | > 100 µM (inactive) | > 100 µM (inactive) | 56.4 µM (inactive) | > 100 µM (inactive) | > 100 µM (inactive) |
| CCOC(=O)c1oc2cc3c(c4c2c1-c1ccccc1N4C)C=CC(C)(C)O3 | 8.89 µM (inactive) | 7.1 µM (inactive) | 10.4 µM (inactive) | 16.9 µM (inactive) | 2.37 µM (inactive) | 15.8 µM (inactive) | 20.5 µM (inactive) | 9.51 µM (inactive) | 59.8 µM (inactive) | 15.8 µM (inactive) | 23.5 µM (inactive) | 65.3 µM (inactive) | 14 µM (inactive) | > 79.8 µM (inactive) | 6.3 µM (inactive) | 18.7 µM (inactive) | 24.4 µM (inactive) | 12 µM (inactive) | 16.8 µM (inactive) |
| [N-]=[N+]=NC1C(O)C(CO)OC1n1ccc(=O)[nH]c1=O (stereo not drawn) | > 875 µM (inactive) | > 875 µM (inactive) | > 875 µM (inactive) | > 875 µM (inactive) | > 875 µM (inactive) | > 875 µM (inactive) | > 875 µM (inactive) | > 875 µM (inactive) | > 875 µM (inactive) | > 875 µM (inactive) | > 875 µM (inactive) | > 875 µM (inactive) | > 875 µM (inactive) | > 875 µM (inactive) | > 875 µM (inactive) | > 875 µM (inactive) | 863 µM (inactive) | > 875 µM (inactive) | > 875 µM (inactive) |
| O=C1N/C(=N/N=C/C(O)C(O)C(O)C(O)CO)N/C1=C\c1cccs1 (stereo not drawn) | > 100 µM (inactive) | > 100 µM (inactive) | > 100 µM (inactive) | 93.8 µM (inactive) | > 100 µM (inactive) | > 100 µM (inactive) | > 100 µM (inactive) | > 100 µM (inactive) | > 100 µM (inactive) | > 100 µM (inactive) | > 100 µM (inactive) | > 100 µM (inactive) | > 100 µM (inactive) | > 100 µM (inactive) | > 100 µM (inactive) | > 100 µM (inactive) | > 100 µM (inactive) | > 100 µM (inactive) | > 100 µM (inactive) |
| C=C(C)C(=O)O[C@H]1CC2=CC(CC(C)=C[C@H]3OC(=O)C(=C)C13)OC2=O (stereo partly drawn) | 13.2 µM (inactive) | 8.02 µM (inactive) | 25.2 µM (inactive) | 11.2 µM (inactive) | 13.1 µM (inactive) | 33 µM (inactive) | 31.1 µM (inactive) | 17 µM (inactive) | 11.8 µM (inactive) | 68.2 µM (inactive) | 14.1 µM (inactive) | 35 µM (inactive) | 19.8 µM (inactive) | 24.4 µM (inactive) | 38.3 µM (inactive) | 15.5 µM (inactive) | 3.65 µM (inactive) | 20.2 µM (inactive) | > 100 µM (inactive) |
| COc1cc(C2SC(=N)Nc3c2c(C)nn3C(=O)c2ccccc2O)ccc1O (stereo not drawn) | 1.21 µM (inactive) | > 2.96 µM (inactive) | > 3.98 µM (inactive) | 0.971 µM (active) | > 2.01 µM (inactive) | 1.61 µM (inactive) | 0.317 µM (active) | > 6.38 µM (inactive) | > 4.71 µM (inactive) | 2.75 µM (inactive) | > 10 µM (inactive) | > 6.62 µM (inactive) | > 2.28 µM (inactive) | 1.75 µM (inactive) | > 2.38 µM (inactive) | 1.69 µM (inactive) | > 2.32 µM (inactive) | 0.513 µM (active) | > 2.25 µM (inactive) |
| COc1ccc2nc3cc(Cl)ccc3c(NCCNCCCNC(=O)c3cc(-c4ccccc4)nc4ccccc34)c2c1 | > 100 µM (inactive) | > 100 µM (inactive) | > 100 µM (inactive) | > 100 µM (inactive) | > 100 µM (inactive) | > 100 µM (inactive) | > 100 µM (inactive) | 22.6 µM (inactive) | > 100 µM (inactive) | 67 µM (inactive) | > 100 µM (inactive) | > 100 µM (inactive) | > 100 µM (inactive) | 28.6 µM (inactive) | > 100 µM (inactive) | > 100 µM (inactive) | 31.3 µM (inactive) | 97.5 µM (inactive) | > 100 µM (inactive) |
| COc1ccc2c(c1)CCC(CN1CCN(CCOC(c3ccc(F)cc3)c3ccc(F)cc3)CC1)C2O (stereo not drawn) | 5.93 µM (inactive) | 15 µM (inactive) | 13.6 µM (inactive) | 11.2 µM (inactive) | 19.3 µM (inactive) | 13.8 µM (inactive) | 16.4 µM (inactive) | 5.09 µM (inactive) | 21.1 µM (inactive) | 5.65 µM (inactive) | 14.6 µM (inactive) | 3.49 µM (inactive) | 10.5 µM (inactive) | 15.6 µM (inactive) | 12.5 µM (inactive) | 18.1 µM (inactive) | 0.687 µM (active) | 14.4 µM (inactive) | 16 µM (inactive) |
| CC(C(=O)O)c1ccc(-c2ccccc2)c(F)c1 (stereo not drawn) [FLURBIPROFEN] | > 100 µM (inactive) | > 100 µM (inactive) | > 100 µM (inactive) | > 100 µM (inactive) | > 100 µM (inactive) | > 100 µM (inactive) | > 100 µM (inactive) | > 100 µM (inactive) | > 100 µM (inactive) | > 100 µM (inactive) | > 100 µM (inactive) | > 100 µM (inactive) | > 100 µM (inactive) | > 100 µM (inactive) | > 100 µM (inactive) | > 100 µM (inactive) | > 100 µM (inactive) | > 100 µM (inactive) | > 100 µM (inactive) |

From ChEMBL document CHEMBL1201862, “PubChem BioAssay data set” (2004)
